Measured values from patent US7897776B2, “Sulfonamide containing compounds for treatment of inflammatory disorders” (Salutria Pharmaceuticals LLC, priority 2007, dated 2011).
Structures can show the parent of a compound that is named as a salt.

What was measured:
[1] = system: Methacholine-induced airway reactivity; test: Mouse model of asthma: methacholine-induced airway reactivity (Penh) in ovalbumin-sensitized and challenged mice; assay type: in vivo; details: % inhibition of the PenH vs McH dose AUC compared with vehicle control; for inhibition in vivo at 50 mg/kg: Mus musculus, po, 768 h, 50 mg/kg p.o., dosed days 26-32, measured day 32, ovalbumin-sensitized male Balb/CJ mice, read-out: Reduction of Penh AUC at 50 mg/kg p.o.
Description: Male 5-6 week old Balb/CJ mice were obtained from Jackson Laboratories (Bar Harbor, Me.). All experimental animals were used in accordance to Institutional Animal Care and Use Committee of AtheroGenics, Inc. Mice were sensitized by administering an intraperitoneal injection of 20 μg of ovalbumin (Calbiochem, La Jolla, Calif.) adsorbed in 2 mg of alum (Imject Alum; Pierce, Rockford, Ill.) on day 0 and 14. A group of mice received saline and served as negative control animals. The mice were challenged by aerosol exposure to ovalbumin (1% [wt/vol]) for 25 minutes on 3 consecutive days (days 28, 29, and 30) in a plexiglass exposure chamber coupled to an Aeroneb nebulizer (Buxco Electronics, Wilmington, N.C.). Experimental compounds were dissolved in Glycofurol/PEG 300/Tween (35%/55%/10%) (Sigma-Aldrich; Milwaukee, Wis.). Animals were dosed orally with either test compound or vehicle (6 ml/kg dosing volume) on days 26-32 of study. Compound or vehicle was administered 2 hour before the aerosol challenge on days 28, 29, and 30 and 1 hour before airway reactivity measurement on day 32.
Methacholine-induced airway reactivity was assessed on day 32. Methacholine was administered in increasing concentrations ([…], 1.5, 3, 6, 12, 25, and 50 mg/ml) to unrestrained mice. Increases in airway resistance to Methacholine were determined as enhanced pause, (Penh) values, during and after the exposure (6-minute total analysis time). Mice were then humanely euthanized with an overdose of ketamine/xylazine and plasma samples collected for determination of drug levels. The data is presented as the % inhibition of the PenH vs McH dose AUC compared with the vehicle control.
Data analysis was conducting using the software package, JMP (SAS Institute Inc; Cary, N.C.). The Dunnett's multiple comparison test was used to compare treatment group means to the vehicle control group. P values of less than 0.05 were considered statistically significant. The data (Table 1) is presented as the % inhibition of the PenH vs McH dose AUC compared with the vehicle control.

Row | melting point [°C] | Compound | inhibition in vivo at 50 mg/kg [1] [%] | Reduction of Penh AUC at 50 mg/kg p.o. ([1]; dosed days 26-32, measured day 32, ovalbumin-sensitized male Balb/CJ mice, 50 mg/kg)
1 | – | Cn1c(C(=O)O)ccc1S(=O)(=O)N1CCC(CCO)(Sc2cc(C(C)(C)C)c(O)c(C(C)(C)C)c2)CC1 [Example 1, 5-[4-(3,5-Di-tert-butyl-4-hydroxy-phenylsulfanyl)-4-(2-hydroxy-ethyl)-piperidine-1-sulfonyl]-1-methyl-1H-pyrrole-2-carboxylic acid] | < 20 | –
2 | 126 to 127 | Cn1c(CO)ccc1S(=O)(=O)N1CCC(CCO)(Sc2cc(C(C)(C)C)c(O)c(C(C)(C)C)c2)CC1 [Example 2, 2,6-Di-tert-butyl-4-[4-(2-hydroxy-ethyl)-1-(5-hydroxymethyl-1-methyl-1H-pyrrole-2-sulfonyl)-piperidin-4-ylsulfanyl]-phenol] | > 40 | –
3 | – | Cc1[nH]c(C(=O)O)c(C)c1S(=O)(=O)N1CCC(Sc2cc(C(C)(C)C)c(O)c(C(C)(C)C)c2)CC1 [Example 3, 4-[4-(3,5-Di-tert-butyl-4-hydroxy-phenylsulfanyl)-piperidine-1-sulfonyl]-3,5-dimethyl-1H-pyrrole-2-carboxylic acid] | 20 to 40 | –
4 | – | Cn1c(C(=O)O)ccc1S(=O)(=O)N1CCC(Sc2cc(C(C)(C)C)c(O)c(C(C)(C)C)c2)CC1 [Example 4, 5-[4-(3,5-Di-tert-butyl-4-hydroxy-phenylsulfanyl)-piperidine-1-sulfonyl]-1-methyl-1H-pyrrole-2-carboxylic acid] | > 40 | –
5 | 64 to 65 | Cn1c(CO)ccc1S(=O)(=O)N1CCC(Sc2cc(C(C)(C)C)c(O)c(C(C)(C)C)c2)CC1 [Example 5, 2,6-Di-tert-butyl-4-[1-(5-hydroxymethyl-1-methyl-1H-pyrrole-2-sulfonyl)-piperidin-4-ylsulfanyl]-phenol] | > 40 | –
6 | – | Cn1c(C(=O)O)ccc1S(=O)(=O)N1CCC(Sc2cc(C(C)(C)C)c(OCCCO)c(C(C)(C)C)c2)CC1 [Example 6, 5-{4-[3,5-Di-tert-butyl-4-(3-hydroxy-propoxy)-phenylsulfanyl]-piperidine-1-sulfonyl}-1-methyl-1H-pyrrole-2-carboxylic acid] | < 20 | –
7 | – | Cn1c(C(=O)O)ccc1S(=O)(=O)N1CCC([S+]([O-])c2cc(C(C)(C)C)c(O)c(C(C)(C)C)c2)CC1 (stereo not shown) [Example 7, 5-[4-(3,5-Di-tert-butyl-4-hydroxy-benzenesulfinyl)-piperidine-1-sulfonyl]-1-methyl-1H-pyrrole-2-carboxylic acid] | 20 to 40 | –
8 | – | CC(C)(C)c1cc(SC2CCN(S(=O)(=O)c3ncc(C(=O)O)[nH]3)CC2)cc(C(C)(C)C)c1O [Example 8, 2-[4-(3,5-Di-tert-butyl-4-hydroxy-phenylsulfanyl)-piperidine-1-sulfonyl]-3H-imidazole-4-carboxylic acid] | 20 to 40 | –
9 | 122 to 123 | CC(C)(C)c1cc(SC2CCN(S(=O)(=O)c3ncc(CO)[nH]3)CC2)cc(C(C)(C)C)c1O [Example 9, 2,6-Di-tert-butyl-4-[1-(5-hydroxymethyl-1H-imidazole-2-sulfonyl)-piperidin-4-ylsulfanyl]-phenol] | 20 to 40 | –
10 | – | CC(C)(C)c1cc(SC2CCN(S(=O)(=O)c3ncc(C(C)(C)O)[nH]3)CC2)cc(C(C)(C)C)c1O [Example 12, 2,6-Di-tert-butyl-4-{1-[5-(1-hydroxy-1-methyl-ethyl)-1H-imidazole-2-sulfonyl]-piperidin-4-ylsulfanyl}-phenol] | < 20 | –
11 | – | Cn1c(C(=O)O)ccc1S(=O)(=O)N1CC[C@@H](Sc2cc(C(C)(C)C)c(O)c(C(C)(C)C)c2)C1 [Example 13, (R)-5-[3-(3,5-Di-tert-butyl-4-hydroxy-phenylsulfanyl)-pyrrolidine-1-sulfonyl]-1-methyl-1H-pyrrole-2-carboxylic acid] | < 20 | –
12 | – | Cn1c(C(=O)O)ccc1S(=O)(=O)N1CC[C@H](Sc2cc(C(C)(C)C)c(O)c(C(C)(C)C)c2)C1 [Example 14, (S)-5-[3-(3,5-Di-tert-butyl-4-hydroxy-phenylsulfanyl)-pyrrolidine-1-sulfonyl]-1-methyl-1H-pyrrole-2-carboxylic acid] | < 20 | –
13 | 68 to 70 | Cn1c(CO)ccc1S(=O)(=O)N1CC[C@H](Sc2cc(C(C)(C)C)c(O)c(C(C)(C)C)c2)C1 [Example 15, (S)-2,6-Di-tert-butyl-4-[1-(5-hydroxymethyl-1-methyl-1H-pyrrole-2-sulfonyl)-pyrrolidin-3-ylsulfanyl]-phenol] | < 20 | –
14 | – | Cn1c(C(=O)O)ccc1S(=O)(=O)N1CCC(Sc2cc(C(C)(C)C)c(O)c(C(C)(C)C)c2)CC1 [Example 16, 5-[4-(3,5-Di-tert-butyl-4-hydroxy-phenylsulfanyl)-piperidine-1-sulfonyl]-1-methyl-1H-pyrrole-2-carboxylic acid L-arginine salt] | < 20 | –
15 | – | Cn1c(C(=O)O)ccc1S(=O)(=O)N1CCC(Sc2cc(C(C)(C)C)c(O)c(C(C)(C)C)c2)CC1 [Example 18, 5-[4-(3,5-Di-tert-butyl-4-hydroxy-phenylsulfanyl)-piperidine-1-sulfonyl]-1-methyl-1H-pyrrole-2-carboxylic acid tris(hydroxymethyl)aminomethane (THAM) Salt] | – | 1 (>40% and statistically significant)
